Experimental data taken from ChEMBL document CHEMBL2074107, “Zoledronic acid is synergic with vinblastine to induce apoptosis in a multidrug resistance protein-1 dependent way: an in vitro study” (Cell Biol Int, 2006).

Molecular target: Multidrug resistance-associated protein 1 (Homo sapiens, UniProt P33527)
Experiment: TP_TRANSPORTER: inhibition of apoptosis in hMRP1-expressing HEK293 cells
Format: functional, cell-based

Sequence of Multidrug resistance-associated protein 1 (P33527 whole entry): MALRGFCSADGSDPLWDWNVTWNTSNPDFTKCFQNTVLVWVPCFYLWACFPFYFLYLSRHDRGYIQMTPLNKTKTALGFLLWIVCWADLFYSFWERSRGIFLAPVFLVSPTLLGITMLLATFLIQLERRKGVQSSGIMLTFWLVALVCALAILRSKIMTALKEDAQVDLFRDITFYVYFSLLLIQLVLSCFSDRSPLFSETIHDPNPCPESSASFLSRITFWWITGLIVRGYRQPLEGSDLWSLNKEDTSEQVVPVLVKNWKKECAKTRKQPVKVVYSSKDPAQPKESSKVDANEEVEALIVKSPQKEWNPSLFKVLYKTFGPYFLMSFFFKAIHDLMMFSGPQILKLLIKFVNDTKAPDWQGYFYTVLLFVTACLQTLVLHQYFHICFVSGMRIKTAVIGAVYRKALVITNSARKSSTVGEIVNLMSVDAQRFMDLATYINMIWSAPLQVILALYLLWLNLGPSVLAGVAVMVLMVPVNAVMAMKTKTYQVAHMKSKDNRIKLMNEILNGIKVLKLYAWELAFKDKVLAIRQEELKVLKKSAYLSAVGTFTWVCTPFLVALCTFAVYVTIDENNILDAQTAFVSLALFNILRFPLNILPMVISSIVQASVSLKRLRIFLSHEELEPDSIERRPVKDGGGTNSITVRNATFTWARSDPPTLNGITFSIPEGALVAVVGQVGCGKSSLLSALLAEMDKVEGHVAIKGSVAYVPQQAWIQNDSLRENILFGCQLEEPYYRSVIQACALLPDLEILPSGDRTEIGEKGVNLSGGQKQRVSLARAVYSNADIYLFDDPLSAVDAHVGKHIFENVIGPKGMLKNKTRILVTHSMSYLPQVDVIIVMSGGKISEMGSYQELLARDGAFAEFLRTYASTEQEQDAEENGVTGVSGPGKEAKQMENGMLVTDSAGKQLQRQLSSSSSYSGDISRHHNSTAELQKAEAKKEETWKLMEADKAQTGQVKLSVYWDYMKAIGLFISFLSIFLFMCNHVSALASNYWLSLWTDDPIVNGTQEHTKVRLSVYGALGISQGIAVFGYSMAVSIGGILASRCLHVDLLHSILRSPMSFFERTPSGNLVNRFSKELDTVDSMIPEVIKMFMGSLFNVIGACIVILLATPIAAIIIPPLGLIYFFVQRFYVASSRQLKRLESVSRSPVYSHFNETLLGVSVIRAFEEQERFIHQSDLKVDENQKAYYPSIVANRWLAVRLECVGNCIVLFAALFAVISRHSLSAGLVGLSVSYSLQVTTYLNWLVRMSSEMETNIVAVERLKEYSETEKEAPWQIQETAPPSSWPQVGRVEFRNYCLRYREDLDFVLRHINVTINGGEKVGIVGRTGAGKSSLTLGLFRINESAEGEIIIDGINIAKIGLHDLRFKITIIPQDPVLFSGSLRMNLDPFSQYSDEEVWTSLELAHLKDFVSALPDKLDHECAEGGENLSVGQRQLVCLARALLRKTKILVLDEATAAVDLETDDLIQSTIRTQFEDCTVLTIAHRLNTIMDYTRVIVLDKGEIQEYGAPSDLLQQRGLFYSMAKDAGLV

SMILES | Activity
CC[C@]1(O)C[C@@H]2CN(CCc3c([nH]c4ccccc34)[C@@](C(=O)OC)(c3cc4c(cc3OC)N(C)[C@H]3[C@@](O)(C(=O)OC)[C@H](OC(C)=O)[C@]5(CC)C=CCN6CC[C@]43[C@@H]65)C2)C1 [VINBLASTINE] | substrate []
O.O=P(O)(O)C(O)(Cn1ccnc1)P(=O)(O)O [ZOLEDRONIC ACID] | substrate []
